Experiments:
mouse ATDC5 cells = assay: Peptide binding to cell surface, flow cytometry; assay type: cell-based; details: 1 h room temperature, streptavidin-FITC; for binding to cell membrane of ATDC5 cells (flow cytometry) at 260 nmol: biotin-labeled peptide
Text: The mouse ATDC5 chondrogenic cell line is an important chondrocyte model that has been widely used in the study of chondrocyte proliferation and differentiation. This cell line was used to evaluate the membrane-binding ability of the modified peptide, as articular cartilage (which contains chondrocytes) is one of the main cellular components in the joint cavity. The cells were purchased from Guangzhou Jennio Biotech Co., Ltd. (Guangzhou, China) and maintained in Dulbecco's Modified Eagle Medium (DMEM, ThermoFisher, America) supplemented with 10% fetal bovine serum (FBS, Gibco, Australia) at 37°C in a humidified atmosphere with 5% CO2. The 5th−10th passages of the cells were used in the study.
To assess the binding ability of the modified peptide to the cell membrane, the three peptides were labeled with biotin at the C-terminus. Cultured mouse ATDC5 cells were washed with phosphate-buffered saline (PBS) and incubated with various concentrations of the control, original or modified peptides (65, 130, and 260 nmol, respectively) for 1 h at room temperature. After washing twice with PBS to remove the unbound peptides, streptavidin-fluorescein isothiocyanate (FITC; eBioscience, California, USA) was added and incubated for 0.5 h at room temperature. The cells were washed and resuspended in PBS and then the binding of the peptides to the cell membrane was assessed by flow cytometry (BD Biosciences, California, USA). To further assess the retention of peptides on the surface of cells, the mouse ATDC5 cells were cultured in a 12-well culture plate which contains cell slides on the bottom. They were washed with PBS on the next day and then blocked with normal goat serum for 30 min at room temperature before incubation with various concentrations of peptides (260 nmol, 540 nmol, and 1.08 mmol). The binding of the peptides to the cell membrane was then assessed by staining with streptavidin-FITC (eBioscience). After being stained, the cells that had adhered to the cell slides were mounted using ProLong Gold Antifade reagent (ZSGB-BIO, Beijing, china) containing 4′,6-diamidino-2-phenylindole (DAPI, ThermoFisher, America) dye to stain the cell nuclei. They were then analyzed by confocal laser scanning microscopy (Leica, Germany).
Figure 3 Modified peptide non-specifically bound to the cell surface. (A) Binding of peptides to the surface of mouse ATDC5 cells measured by flow cytometry. All experiments were performed three times and data are presented as mean ± SD. n = 5, ***p < 0.001, ns: not significant (p > 0.05). (B) Binding of various concentrations of biotin-labeled peptides on the surface of mouse ATDC5 cells assessed by confocal laser scanning microscopy. Arrowheads indicate the binding of the modified peptides on the surface of mouse ATDC5 cells.

[1] = tested on: complement in normal mouse serum (NMS); rabbit erythrocytes; assay: NMS-induced complement-mediated hemolysis of rabbit erythrocytes (alternative pathway); assay type: cell-based; details: for inhibition of NMS-induced erythrocyte lysis: NMS 1:12.5, peptide 1.31, 2.62, 5.24 μmol, Mg-EGTA, 37°C 40 min, then rabbit erythrocytes 1 × 10^8, 30 min 37°C, absorbance 412 nm; for inhibition of NMS-induced erythrocyte lysis / inhibition of NMS-induced hemolysis compared to control peptide: three experiments; for NMS-induced erythrocyte lysis at 5.24 μmol: peptide 5.24 μmol, NMS 1:12.5; for inhibition of NMS-induced hemolysis compared to control peptide: peptide 2.62 and 5.24 μmol, *p < 0.05, **p < 0.01
Experimental: Normal human serum (NHS) was collected from six healthy volunteers, and the donation procedure was approved by the Institutional Review Board (IRB) of Capital Medical University (approval number: 2016SY01). After venous blood was collected, it was clotted in serum separator tubes for 4 h at room temperature and then centrifuged at 1,000 g for 30 min to obtain the serum. The serum was divided into aliquots and stored at −80°C. To obtain normal mouse serum (NMS), blood was collected in the […] of mice under ether anesthesia and the serum was separated and stored as described above.
When rabbit erythrocytes are placed in xenogeneic serum (such as NHS or NMS), the alternative pathway of the complement system is activated, causing lysis of the rabbit erythrocytes. To evaluate the effects of the peptides on the complement activation-mediated erythrocyte lysis (involving the alternative complement pathway), NHS or NMS (1:12.5) was incubated with various concentrations of peptides (1.31, 2.62, and 5.24 μmol) in Mg-EGTA solution (5 mM MgCl2, 10 mM EGTA) at 37°C for 40 min before adding the mixture to freshly washed erythrocytes (1 × 10^8) in gelatin veronal-buffered saline (pH 7.4, containing 0.1% gelatin) for 30 min at 37°C. Lysis was stopped with cold Hanks' Balanced Salt Solution (HBSS^++) containing 10 mM ethylenediaminetetraacetic acid (EDTA). The samples were then centrifuged at 1,000 g for 10 min to obtain the supernatant, and the amount of released hemoglobin in the supernatant was determined by measuring the absorbance at 412 nm. The hemolytic activity relative to the water-induced lysis among the same number of erythrocytes was calculated.
Figure 2 Modified peptide bound to mouse complement C9 and inhibited normal mouse serum (NMS)-induced hemolysis of rabbit erythrocytes. (A) Microscale thermophoresis assay (NanoTemper) in which biomolecular interactions are quantitated by examining the motion of the molecules along a microscopic temperature gradient induced by an infrared laser. Changes in the molecular hydration shell, charge, or size are measured using a fluorescent probe (NT-647) bound covalently to the mouse C9. Binding of control, modified and original peptides to mouse C9 were studied. […] Data points indicate the differences in normalized fluorescence (%) generated by peptides binding to mouse C9, and curves indicate the calculated fits. Error bars represent the standard error of three independent measurements. (B) NMS-induced complement-mediated hemolysis was inhibited by the modified and original peptides (2.62 and 5.24 μmol) compared to the control peptide. All experiments were performed three times and data are presented as mean ± SD. *p < 0.05, **p < 0.01.

| Substance | binding to cell membrane of ATDC5 cells (flow cytometry) at 260 nmol (mouse ATDC5 cells; 260 nmol) | inhibition of NMS-induced erythrocyte lysis [1] | ATDC5 cells bound to peptide (mouse ATDC5 cells; C-terminally biotin-labeled peptide, 260 nmol, flow cytometry, n = 5) [%] | binding to cell surface of ATDC5 cells (flow cytometry), concentration dependence (mouse ATDC5 cells; biotin-labeled peptide 65, 130, 260 nmol) | NMS-induced erythrocyte lysis at 5.24 μmol [1] | inhibition of NMS-induced hemolysis compared to control peptide [1] |
| --- | --- | --- | --- | --- | --- | --- |
| GKMSVMSVYKSVLS [control peptide, reference compound] | did not bind to the cell membrane | no inhibitory effect | – | – | – | – |
| Myr-GSSKSPSKKKKKKPG-ACP-VSMGKSLSSKVYVM [modified peptide, Ts-pmy-derived peptide modified with a membrane-targeting signal] | – | inhibited in a dose-dependent manner | ~100 | bound to the cell surface of mouse ATDC5 cells in a dose-dependent manner | reduced, to a similar level to the NHS-induced erythrocyte lysis | inhibited |
| VSMGKSLSSKVYVM [original peptide, tetradecapeptide derived from Trichinella spiralis paramyosin (Ts-pmy)] | did not bind to the cell membrane | inhibited in a dose-dependent manner | – | – | reduced, to a similar level to the NHS-induced erythrocyte lysis | inhibited |
